Results published in PubChem BioAssay (NCI).
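Five compound concentrations were applied to cells in 96-well plates for 48 hours; endpoints were derived by simple linear interpolation of the resulting dose-response curve. TGI: concentration producing complete growth inhibition.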

Assays:
Test in all cases: DTP human tumour cell line panel, 48 h
786-0 renal = tested on: 786-0 renal
HCC-2998 colon = tested on: HCC-2998 colon
HCT-15 colon = tested on: HCT-15 colon
HT29 colon = tested on: HT29 colon
K-562 leukemia = tested on: K-562 leukemia
KM12 colon = tested on: KM12 colon
M14 melanoma = tested on: M14 melanoma
NCI-H522 lung = tested on: NCI-H522 lung
OVCAR-3 ovarian = tested on: OVCAR-3 ovarian
OVCAR-8 ovarian = tested on: OVCAR-8 ovarian
RPMI-8226 leukemia = tested on: RPMI-8226 leukemia
SNB-75 CNS = tested on: SNB-75 CNS
U251 CNS = tested on: U251 CNS
UO-31 renal = tested on: UO-31 renal
DU-145 prostate = tested on: DU-145 prostate
MCF7 breast = tested on: MCF7 breast
MDA-N = tested on: MDA-N
SK-OV-3 ovarian = tested on: SK-OV-3 ovarian
HS 578T breast = tested on: HS 578T breast

Row | Structure (SMILES) | TGI (786-0 renal) [µM] | TGI (HCC-2998 colon) [µM] | TGI (HCT-15 colon) [µM] | TGI (HT29 colon) [µM] | TGI (K-562 leukemia) [µM] | TGI (KM12 colon) [µM] | TGI (M14 melanoma) [µM] | TGI (NCI-H522 lung) [µM] | TGI (OVCAR-3 ovarian) [µM] | TGI (OVCAR-8 ovarian) [µM] | TGI (RPMI-8226 leukemia) [µM] | TGI (SNB-75 CNS) [µM] | TGI (U251 CNS) [µM] | TGI (UO-31 renal) [µM] | TGI (DU-145 prostate) [µM] | TGI (MCF7 breast) [µM] | TGI (MDA-N) [µM] | TGI (SK-OV-3 ovarian) [µM] | TGI (HS 578T breast) [µM]
1 | O=C1CCC(=O)N1Cc1ccccc1N=[N+]([O-])c1ccccc1CN1C(=O)CCC1=O | > 100 | > 100 | > 100 | > 100 | > 100 | > 100 | > 100 | > 100 | > 100 | > 100 | > 100 | 65.6 | > 100 | > 100 |  |  |  |  | 
2 | O=C(COc1ccc(OCC(=O)N2C(=O)CSC2=Nc2ccccc2)cc1)N1C(=O)CSC1=Nc1ccccc1 | 63.2 | 44.2 | > 100 | 41.2 | > 100 | 44.3 | > 100 | 42.1 |  |  | > 100 | > 100 | > 100 | > 100 | > 100 | > 100 | 79.7 | > 100 | 
3 | O=C1C(N2CCNCC2)=C(Cl)C(=O)c2ncccc21 | > 10 | > 10 | > 10 | > 10 | > 10 | > 10 | > 10 |  | > 10 | > 10 | > 10 | > 10 | > 10 |  | > 10 | > 10 | > 10 | > 10 | > 10
4 | CC(=O)OCC1OC(n2c(-c3ccccc3)c(C(C)=O)c(-c3ccc(Cl)cc3)c(C#N)c2=S)C(OC(C)=O)C(OC(C)=O)C1OC(C)=O (stereo not drawn) | > 100 | > 100 | > 100 | > 100 | > 100 | > 100 | > 100 | > 100 | > 100 | > 100 |  | > 100 | > 100 |  | > 100 | > 100 | > 100 | > 100 | 
5 | CC(OC(C)(C)C)[C@H](NC(=O)OC(C)(C)C)C(=O)O (stereo partly drawn) | > 100 | > 100 | > 100 | > 100 | > 100 | > 100 | > 100 | > 100 | > 100 | > 100 | > 100 |  | > 100 | > 100 | > 100 | > 100 |  | > 100 | > 100
6 | Oc1cc(Br)cc2cccnc12 | 38 | 98.2 | > 100 | 35 | 8.08 | > 100 | > 37.7 | 7.57 | 13.7 | > 35.4 | 5.68 | > 91.5 | > 58.4 | 35.9 | > 100 |  | 97 | 79.9 | > 100
7 | O/C(=C\c1nc2ccccc2nc1/C=C(\O)c1ccc(Cl)cc1)c1ccccc1 | > 100 | > 100 | > 100 |  | > 100 | > 100 | > 100 | > 100 |  | > 100 | > 100 | 72.8 | > 100 | > 100 | > 100 | > 100 |  | > 100 | 
8 | Nc1nc(N)c(C2=CCNCC2)c(=O)[nH]1 | > 100 |  | > 100 | > 100 | > 100 | > 100 | > 100 | > 100 | > 100 | > 100 | > 100 | > 100 | > 100 | > 100 | > 100 | > 100 |  | > 100 | > 100
9 | COc1cc(C)c(/C=C/C(=O)N2C(=O)OC[C@@H]2c2ccccc2)c(C)c1 | > 100 | > 100 | > 100 | 63.2 | > 100 | > 100 | > 100 | > 100 | > 100 | > 100 | > 100 | > 100 | > 100 | > 100 | > 100 |  | > 100 | > 100 | > 100
10 | CC(C)(C)OC(=O)c1cnc(Cl)cn1 | > 100 |  | 27.5 | > 100 | > 100 | > 100 | > 100 | 2.78 |  | > 100 | > 100 | > 100 | > 100 | 18.5 | > 100 | > 100 |  | > 100 | > 100
11 | CS/C1=C(\c2ccc(C)cc2)N(c2ccccc2)C(=O)C(=O)N(c2ccccc2)/C(c2ccc(C)cc2)=C(/SC)SS1 | > 100 | > 100 | > 100 | > 100 | > 100 |  | > 100 | > 100 | > 100 | > 100 | > 100 | > 100 | > 100 | > 100 | > 100 | > 100 | > 100 |  | 
12 | NC(=S)N/N=C(\Cc1nc2ccc(Cl)cc2[nH]c1=O)C(=O)Nc1ccc(Cl)cc1 | > 100 | > 100 | > 100 | > 100 |  | > 100 | > 100 | > 100 | > 100 | > 100 |  | > 100 | > 100 | > 100 | > 100 | > 100 |  | > 100 | > 100
13 | Oc1ccccc1/C=N/Nc1nc(N/N=C/c2ccccc2O)nc(N/N=C/c2ccccc2O)n1 | > 100 | > 100 | > 100 | > 100 | > 100 | > 100 | > 100 | > 100 | > 100 | > 100 |  |  | > 100 | > 100 | > 100 | > 100 | > 100 | > 100 | > 100
14 | Cc1ccc2c(=O)c3cccc(CC(=O)O)c3[nH]c2c1C | > 100 |  | > 100 | > 100 | > 100 | > 100 | > 100 | > 100 | > 100 | > 100 | > 100 |  | > 100 | > 100 | > 100 | > 100 | > 100 | > 100 | > 100
15 | CC1(C)O[C@@H]2[C@@H](COC(=O)c3ccccc3)C[C@@H](C#N)[C@@H]2O1 | > 100 | > 100 | > 100 | > 100 | > 100 | > 100 | > 100 | > 100 | > 100 | > 100 | > 100 | > 100 | > 100 | > 100 | > 100 | > 100 |  | > 100 | > 100
16 | CCCCCCCCCc1cc(-c2ccc(C=O)s2)sc1-c1ccc(C=O)s1 | > 85.2 | > 78.7 | > 72.7 | > 100 | > 38 | > 100 | 25 | 45.6 | 38.2 | > 59 | 51.2 | > 91.1 | 29 | 63.3 | > 100 | > 54.3 |  | 67.2 | 46.5
17 | O=C1SS(=O)c2ccccc21 (stereo not drawn) | > 100 | > 100 | > 100 | > 100 | > 100 | > 100 | > 100 | > 100 | > 100 | > 100 | > 100 | > 100 | > 100 | > 100 | > 100 | > 100 | > 100 | > 100 | 
18 | Nc1nc(Cl)c2ncn(Cc3ccc(CCl)cc3)c2n1 | 93.9 | 8.95 | 19.8 | 27.6 | > 100 | 22.9 | 37.7 | 25.9 | 5.5 | 32.8 | > 100 | 90.2 | 12 | 25.4 | 19.5 | 16.8 |  | 31.1 | > 100
19 | Cc1ccc2ccccc2c1NC1=NCCO1 | > 100 | > 100 | > 100 | > 100 | > 100 | > 100 | > 100 |  |  | > 100 | > 100 | > 100 | > 100 | > 100 | > 100 | > 100 |  | > 100 | > 100
20 | CC(=O)O[C@H]1C(=O)[C@@]2(C)[C@H]([C@H](OC(=O)c3cccc(C(F)(F)F)c3)[C@]3(O)C[C@H](OC(=O)[C@H](O)[C@@H](NC(=O)c4ccccc4)c4ccccc4)C(C)=C1C3(C)C)[C@]1(OC(C)=O)CO[C@@H]1C[C@@H]2O | 4.49 |  | > 25 | 3.84 | 4.85 | 24.8 | 11.9 | 0.0175 | 8.03 | 7.61 | 0.0862 |  | 0.0196 | > 15.9 |  |  | < 0.0025 | > 25 | 0.0653
21 | COc1ccc(C2CC(c3ccccc3)=Nc3c(-c4ccccc4)nnn32)cc1 (stereo not drawn) | > 100 |  | > 100 | > 100 | > 100 | > 100 | > 100 | 69.3 | > 100 | > 100 | 82.6 |  | > 100 | > 100 | > 100 | > 100 | > 100 | > 100 | > 100
22 | C=C(C)C1Cc2c(cc(O)c3c(=O)c4c(oc23)C(O)Oc2cc(OC)c(OC)cc2-4)O1 (stereo not drawn) | > 10 | > 10 | > 10 | > 10 | > 10 | > 10 | > 10 |  | > 10 | > 10 | > 10 |  | > 10 | > 10 | > 10 | > 10 | > 10 |  | 
23 | CC(C)(C)c1cc(C(C)(C)C)c(SS(=O)(=O)O)c(O)c1O | > 100 |  | > 100 | > 100 | > 100 | > 100 | > 100 |  | > 100 | > 100 | > 100 | 99.1 | > 100 | > 100 | > 100 | > 100 | > 100 | > 100 | 
24 | FC(F)(Sc1ccccn1)c1nc2ccccc2o1 | > 100 | > 100 | > 100 | > 100 | > 100 | > 100 | > 100 | > 100 | > 100 | > 100 | > 100 |  | > 100 | > 100 | > 100 | > 100 | > 100 | > 100 | 
25 | CC(C)=NN/C(=N\S(=O)(=O)c1ccc(C)cc1)Nc1ccc(Cl)cc1 | > 100 |  | > 100 | > 100 | > 100 | > 100 | > 100 | > 100 | > 100 | > 100 | > 100 |  | > 100 | > 100 | > 100 | > 100 | > 100 |  | > 100
26 | CNC(=O)c1n[nH]nc1Sc1c([N+](=O)[O-])ncn1C | > 100 | > 100 | > 100 | > 100 | > 100 | > 100 | > 100 | > 100 | > 100 | > 100 |  |  | > 100 | > 100 | > 100 | > 100 |  | > 100 | > 100
27 | CC(=O)NC(C)(C)C1CC=C(C)CC1 (stereo not drawn) | > 100 | > 100 | > 100 | > 100 | > 100 | > 100 | > 100 |  | > 100 | > 100 | > 100 | > 100 | > 100 | > 100 | > 100 | > 100 | > 100 | > 100 | > 100
